Data taken from US20190307818A1, “NOVEL ANTIMICROBIAL COMPOSITIONS AND METHODS OF USE” (priority 2016, published 2019).

Key:
LasR [1] = molecular target: T1, LasR (Pseudomonas aeruginosa, UniProt P25084); assay: Two plasmid E. coli LasR reporter (luciferase); type: cell-based, P. aeruginosa; conditions: for remaining activity at 100 µM: read-out: Percent Activity (LasR reporter); for Percent Activity (LasR reporter): inhibitor at 100 μM, relative to wild-type (100%)
T1 construct: expressed in transfected cells; host or cells: E. coli TOP10 carrying pBAD-A 6xHIS-lasR and pCS26 plasB-luxCDABE
T1 sequence (P25084 whole entry): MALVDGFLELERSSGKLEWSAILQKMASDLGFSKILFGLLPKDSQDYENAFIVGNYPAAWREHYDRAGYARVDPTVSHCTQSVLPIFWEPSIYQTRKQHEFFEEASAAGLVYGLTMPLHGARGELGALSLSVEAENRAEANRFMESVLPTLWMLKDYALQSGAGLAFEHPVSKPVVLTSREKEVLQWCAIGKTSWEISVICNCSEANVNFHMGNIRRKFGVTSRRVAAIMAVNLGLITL
Text: (§1) A two plasmid E. coli reporter system was constructed, in which LasR or RhlR was expressed under an arabinose inducible promoter (e.g., LasR or RhlR was cloned into a pBAD-A vector and expressed upon addition of arabinose) in the presence of a LasR-dependent or RhlR-dependent promoter fused to luciferase (e.g., cloned into a pCS26 vector). Upon the addition of arabinose and in the presence of AI, LasR or RhlR were expressed, formed a complex with the cognate AI, underwent dimerization, and activated transcription of the reporter construct. All potential inhibitors were tested at 100 μM. The percent activity was reported relative to wild-type (100%).
(§2) A sample experimental protocol for the RhlR reporter (see, e.g., Table 5A2) or for the LasR reporter (see, e.g., Table 5A1).
(§3) A clean plate was filled with water, 70% ethanol, LB, and primed with cultured cells to ensure that initial dispensing led to the appropriate volume of cells being added to the wells. 20 μL of this solution was dispensed into appropriate wells in a 384-well plate that contained small molecule antagonists. 20 μL of this solution was dispensed into wells intended for a positive control that contain only DMSO. To the culture that was saved for negative control, arabinose was added to 0.1%. An equal volume of DMSO was added to the culture, relative to the amount of AI added to the other culture. 20 μL of culture was dispensed into wells intended for a negative control that contained only DMSO and no small molecule QS inhibitors. Plates were incubated at 30° C. in the plate shaker. Plates were read using a 384 LUM/OD 600 setting on the plate reader after 4 hours of induction.
For data analysis, the average and standard deviation for each of the control groups were determined. In a screen, for each data point, the number of standard deviations from the mean was determined to determine if the inhibitor was a “hit”. In a dose response curve, for each data point, the percent inhibition was determined: 1−(X/M), where X=single data point and M=is the mean of the AI only control group. The dose response curve was then plotted as a function of % inhibition (y) v. [inhibitor] on a log scale (x).

RhlR = molecular target: T2, RhlR (Pseudomonas aeruginosa, UniProt P54292); assay: Two plasmid E. coli RhlR reporter (luciferase); type: cell-based, P. aeruginosa; conditions: for remaining activity at 100 µM: read-out: Percent Activity (RhlR reporter); for Percent Activity (RhlR reporter): inhibitor at 100 μM, relative to wild-type (100%)
T2 construct: expressed in transfected cells; host or cells: E. coli TOP10 carrying pBAD-A 6xHIS-rhlR and pCS26 prhlA-luxCDABE
T2 sequence (P54292 whole entry): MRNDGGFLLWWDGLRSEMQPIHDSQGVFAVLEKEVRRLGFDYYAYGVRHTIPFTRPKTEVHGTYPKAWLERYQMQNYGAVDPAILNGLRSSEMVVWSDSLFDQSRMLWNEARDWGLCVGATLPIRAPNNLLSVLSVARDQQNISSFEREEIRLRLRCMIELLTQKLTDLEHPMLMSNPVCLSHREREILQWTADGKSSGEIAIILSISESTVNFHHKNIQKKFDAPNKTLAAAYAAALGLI
Text: as §1, §2
For the RhlR reporter, strains were re-streaked on LB+appropriate antibiotic before each experiment and grown overnight at 37° C. Three colonies were picked and a 3 mL overnight culture in LB+appropriate antibiotic was started. The culture was grown overnight at 37° C. The overnight culture was back-diluted 1:1000 into fresh LB+appropriate antibiotic in an appropriate volume, depending on the number of plates being screened. Each well in a 384 well plate received about 20 μL of culture. An additional 25 mL of culture was reserved for priming the plate filler. The culture was grown at 37° C. until OD600˜0.5, which took about 4 hrs. A 384-well plate was prepared. Stock concentrations of molecules (e.g., small molecule inhibitors) were 10 mM.
For a 10-point dose response for the RhlR reporter, a 1:3 dilution of molecule:DMSO (333 μL of stock molecule, 667 μL of DMSO using a 1 mL pipetteman) was used for accurate dispensing by the robot dispenser. Upon a prompt by the software, the appropriate concentration of each molecule was added. Each well was normalized with a DMSO standard to bring the total % volume of DMSO up to 1% using the robot. Plates were set aside with dispensed drugs until the cells were ready. Once the cells reached an OD600 of 0.5, an appropriate amount of cell culture was dispensed for screening into an Erlenmeyer flask. (Extra culture was saved for a negative control.) Arabinose was added to 0.1% final concentration (1:1000 dilution from stock solution), and AI was added to 10 μM (ED75) from a 10 mM stock. The components of the flask were mixed together by swirling. As mentioned previously, other concentrations of AIs may be suitable, e.g., the concentrations may be in the range of 2 uM to 100 uM, from 10 uM to 100 uM or from 2 uM to 10 uM. In some embodiments, 2 nM of 3-O—C12-HSL (for LasR) and 10 uM of C4-HSL (for RhlR) were used.
as §3
For data analysis, the average and standard deviation for each of the control groups were determined. In a screen, for each data point, the number of standard deviations from the mean was determined to determine if the inhibitor was a “hit”. In a dose response curve, for each data point, the percent inhibition was determined: 1−(X/M), where X=single data point and M=is the mean of the AI only control group. […]

LasR and RhlR = assay: Receptor specific reporter assays for LasR and RhlR activity (stated in words); type: cell-based, P. aeruginosa
Text: wherein R may be H or OH, and two or more of the R substituents of a given compound are OH; R′ is H or OH; and R″ is H or OH. […] A variety of compounds were obtained and tested for activity (e.g., inhibition of receptor specific reporter assays for LasR and RhlR activity).
as §1

LasR [2] = molecular target: T1, LasR; assay: 10-point autoinducer dose response on LasR reporter with QS inhibitor (competition); type: cell-based, P. aeruginosa; conditions: inhibitor at 100 μM; increasing concentrations of AI
Description: FIG. 4. QS inhibitors bind non-competitively to LasR. A 10-point dose response curve with increasing concentrations of autoinducer 3-O—C12-HSL (AI) was generated for a variety of QS small molecule inhibitors. In this figure, curve C12 (filled circle) corresponds to the absence of inhibitor. […] Instead, the inhibitors bind elsewhere on LasR to prevent LasR-dependent transcription.
Using known molecular biology techniques, assays were performed to determine whether binding of the small molecule QS inhibitors and the AIs occurred by a competitive or by another inhibitory mechanism (see, e.g., FIG. 4).
Thus, a 10-point dose response curve with concentrations of AI ranging from 10 pM to 5 nM was generated for a variety of QS small molecule inhibitors. Curve C12 (dotted filled line) corresponds to the absence of inhibitor. […] Instead, the inhibitors bind elsewhere on LasR to prevent LasR-dependent transcription.

[3] = system: Wild-type P. aeruginosa pyocyanin production; assay: Pyocyanin virulence factor production; type: cell-based; conditions: 100 μM overnight, back diluted, grown 18 hrs with inhibitor
Description: FIG. 6. QS inhibitors reduce the level of virulence factor production in P. aeruginosa. The ability of the small molecule inhibitors to reduce virulence factor production by monitoring pyocyanin production was assessed.
The ability of the small molecule QS inhibitors to reduce virulence factor production by monitoring production of pyocyanin as a representative virulence factor was assessed. Wild-type P. aeruginosa was incubated with the indicated molecules at 100 μM overnight, back diluted, and grown for 18 hrs in the presence of QS inhibitor.
By varying the concentration of QS inhibitors, dose dependence curves were generated.

Row | Compound | remaining activity at 100 µM (LasR [1]) | remaining activity at 100 µM (RhlR) | activity (inhibition of receptor specific reporter assays for LasR and RhlR activity) (LasR and RhlR) | competition with autoinducer 3-O—C12-HSL for LasR (LasR [2]) | pyocyanin production [3] | Percent Activity (LasR reporter) (LasR [1]) | Percent Activity (RhlR reporter) (RhlR)
1 | O=C(CCc1ccc(O)cc1)c1c(O)cc(O)cc1O [Molecule 1, Phloretin] | 24.1% | 68.4% | inhibit both LasR and RhlR | did not compete | inhibit pyocyanin to varying degrees |  | 
2 | O=c1cc(-c2ccccc2)oc2cc(O)cc(O)c12 [Molecule 3, Chrysin] | 53.1% | 39.2% | inhibit both LasR and RhlR | did not compete | inhibit pyocyanin to varying degrees |  | 
3 | O=C1CC(c2ccc(O)cc2)Oc2cc(O)cc(O)c21 (stereo not shown) [Molecule 4, Narigenin] |  |  | active |  | inhibit pyocyanin to varying degrees |  | 
4 | O=C1CC(c2ccc(O)cc2)Oc2cc(O)cc(O)c21 (stereo not shown) [Molecule 4] | 63.3% | 60.5% |  |  |  |  | 
5 | O=c1cc(-c2ccc(O)cc2)oc2cc(O)cc(O)c12 [Molecule 43] | 82.4% | 84.5% |  |  |  |  | 
6 | O=c1cc(-c2ccccc2)oc2cccc(O)c12 [Molecule 44] |  |  |  |  |  | Inactive | Inactive
7 | O=c1cc(-c2ccccc2)oc2cc(O)ccc12 [Molecule 45] |  |  |  |  |  | Inactive | Inactive
8 | O=c1c(O)c(-c2ccc(O)c(O)c2)oc2cc(O)cc(O)c12 [Molecule 48, Quercetin] | 44.4% | 40.2% | inhibit both LasR and RhlR | did not compete | inhibit pyocyanin to varying degrees |  | 
9 | COc1cc(OC)c2c(=O)cc(-c3ccccc3)oc2c1 [Molecule 49] |  |  |  |  |  | Inactive | Inactive
10 | O=c1cc(-c2ccccc2)oc2ccc(O)cc12 [Molecule 50] |  |  |  |  |  | Inactive | Inactive
11 | COc1cc(OC)c2c(=O)cc(-c3ccc(O)cc3)oc2c1 [Molecule 52] |  |  |  |  |  | Inactive | Inactive
12 | O=c1cc(-c2ccccc2)oc2ccc(O)c(O)c12 [Molecule 53] | 16.7% | 31.8% |  |  |  |  | 
13 | O=c1cc(-c2ccccc2)oc2c(O)c(O)ccc12 [Molecule 54] | 60.3% | 54.5% |  |  |  |  | 
14 | O=c1c(O)c(-c2ccccc2)oc2cc(O)cc(O)c12 [Molecule 55] |  |  |  |  |  | Inactive | Inactive
